Holding throughout (assay): NCI anticancer screen, dose series, 48 h
Assay [1] concerns A498 renal.
Assay [2] concerns SK-OV-3 ovarian.
For assay [3], the system named is MCF7 breast.
The test system of assay [4] is SNB-19 CNS.
Assay [5] deals with UACC-62 melanoma.
Assay [6] deals with RPMI-8226 leukemia.
Assay [7] has as its system TK-10 renal.
The test system of assay [8] is MOLT-4 leukemia.
Assay [9] relates to IGROV1 ovarian.
For assay [10], the system named is M14 melanoma.

Several values for one entry are separate records, joined by “and”; a condition that tells them apart may be missing. Equal entries are not always repeated.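 Dose response: 5 concentrations. Exposure: 48 h. Format: 96-well plates. Endpoint: linear interpolation; highest concentration if not reached. Here, GI50 denotes the concentration required for 50% inhibition of growth. At the TGI there is no net growth.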

On to `COc1cc2c3c(c1)c1cc(OC)c(OC)cc1c[n+]3CC2`, for which the GI50 in [1] is more than 100 µM; in [2], 89.5 µM; in assay [3], 21.3 µM; in assay [4], 1.94 µM; in assay [5], 28.7 µM; in assay [7] it was more than 100 µM. In addition, the GI50 in assay [8] is 5.16 µM; in [10], 63.8 µM. For the same molecule, the TGI in assay [1] was more than 100 µM; in assay [2], more than 100 µM; in [3], 50 µM and > 100 µM; in [4] it was 50 µM and > 100 µM; in assay [5], 50 µM and > 100 µM; in assay [6], 50 µM. Also, the TGI in [7] was more than 100 µM; in assay [8] it was 50 µM and > 100 µM; in assay [9], 50 µM and > 100 µM; in assay [10], more than 100 µM.

Regarding `C=C1C(=O)O[C@H]2[C@H]1CC/C(COC(=O)NCc1ccc(Cn3c(=O)sn(CCCCl)c3=O)cc1)=C\CC[C@@]1(C)O[C@@H]21`, the GI50 in assay [1] is 2.83 µM; in assay [2], 18.3 µM; in assay [3], 1.71 µM; in [4], 4.84 µM; in assay [5], 1.44 µM; in [6] it was 0.764 µM. For the same molecule, the GI50 in assay [7] was 1.75 µM; in assay [8], 1.5 µM; in assay [9], 1.78 µM; in assay [10], 1.93 µM. In addition, the TGI in assay [1] came out at 11.8 µM; in assay [2], 32.2 µM; in assay [3], 4.54 µM; in assay [4] it was 17.4 µM; in [5] it was 2.8 µM; in assay [6], 3.1 µM. In addition, the TGI in assay [7] stood at 3.34 µM; in [8] it was 5.41 µM; in [9], 3.88 µM; in [10], 4.5 µM.

Regarding `O=C1C=C(Br)C(=O)C12CCc1ccccc12` (stereo not drawn), the TGI was 24.1 µM in assay [1]; 42.6 µM in assay [2]; 48.5 µM in assay [3]; 66.6 µM in assay [4]; 32 µM in assay [5]; more than 37.5 µM in [6]. For the same molecule, the TGI in [7] was 32.3 µM; in assay [8], 6.89 µM; in assay [9] it was 39.3 µM; in assay [10], 19.3 µM.

As for `COC1CC2C=C(C)/C=C/C=C/C(=O)NC(c3ccccc3)C/C=C/CCC(O)CC(=O)C2=C1O` (stereo not drawn), the GI50 in assay [1] was 0.166 µM; in assay [2], 0.369 µM; in assay [3] it was 0.169 µM; in assay [4], 0.279 µM; in assay [5], 0.318 µM; in assay [6], 0.186 µM. Further, the GI50 was 0.298 µM in [7], 0.364 µM in assay [8], 0.444 µM in [9] and 0.31 µM in [10]. Besides, the TGI in assay [1] is 0.654 µM; in assay [2], 1.46 µM; in [3] it was 0.776 µM; in assay [4] it was 1.42 µM; in assay [5], 1.54 µM; in assay [6], 0.566 µM. Besides, the TGI worked out at 1.31 µM in assay [7], 1.4 µM in assay [8], 1.84 µM in [9] and 1.47 µM in [10].

On to `Cc1cc(C)c(C[N+](C)(C)C)c(C)c1C`, for which the GI50 in assay [1] was 0.729 µM; in assay [2] it was 0.499 µM; in assay [3], 0.289 µM; in [4] it was 0.351 µM; in assay [5], 0.538 µM; in [6] it was 0.588 µM. Besides, the GI50 in assay [7] is 0.528 µM; in [8], 0.349 µM; in [9], 0.477 µM; in [10] it was 0.374 µM. Further, the TGI in assay [1] is 8.66 µM; in assay [2], 11.2 µM; in assay [3], 15.2 µM; in assay [4] it was more than 64.5 µM; in assay [5], 18.9 µM; in assay [6] it was 15.9 µM. The TGI in assay [7] is 12.1 µM; in assay [8] it was more than 52.9 µM; in assay [9], more than 95.7 µM; in assay [10], 11.1 µM.

For the molecule `CC(C)c1ccc(/C(C(=O)O)=C(\O)C(=O)O)cc1`, the TGI in [1], in [2], in assay [3], in assay [4], in [5] and in [6] was more than 100 µM in each case. Also, the TGI in assay [7], in assay [8], in [9] and in assay [10] was more than 100 µM each time.

Consider `C[C@]1(CO)[C@H]2CC[C@@]34C=C[C@@](CO)(CC[C@H]3[C@]2(C)CC[C@H]1O)C4`, for which the TGI in [1] is more than 100 µM; in assay [2], more than 100 µM; in assay [3], more than 100 µM; in assay [4], more than 100 µM; in assay [5], more than 100 µM; in [6], 86.6 µM. Further, the TGI is more than 100 µM in assay [7], 48.9 µM in [8], more than 100 µM in [9] and more than 100 µM in assay [10].

In the case of `CCCCNN`, the TGI in assay [1], in assay [2], in [3], in assay [4], in assay [5] and in [6] was more than 100 µM throughout. Besides, the TGI in [7], in assay [8], in assay [9] and in assay [10] was more than 100 µM each time.

As for `Cc1nc2sc(C(=O)Nc3cccc4ccccc34)c(N)c2cc1C(=O)c1ccccc1`, the GI50 in assay [1] was 0.15 µM; in assay [2] it was 1.28 µM; in [3], 1.53 µM; in assay [4], 2.41 µM; in assay [5], 2.42 µM; in [6], 2.46 µM. For the same molecule, the GI50 was more than 50 µM in assay [7], 2.27 µM in [8], 1.8 µM in [9] and 1.23 µM in [10]. Besides, the TGI in [1] was 1.17 µM; in assay [2], more than 50 µM; in [3], more than 50 µM; in [4], more than 50 µM; in assay [5], more than 50 µM; in [6], more than 50 µM. For the same molecule, the TGI in [7], in [8], in assay [9] and in assay [10] was more than 50 µM in each case.

The values above are taken from PubChem BioAssay (NCI).
